Key:
[1] = system: L02; experiment: Cytotoxicity against human L02 cells incubated for 24 hrs by MTT assay; type: cell-based; conditions: l02, 24 h
[2] = system: MCF7; experiment: Cytotoxicity against human MCF7 cells incubated for 24 hrs by MTT assay; type: functional, cell-based; conditions: MCF7, 24 h
[3] = system: SW480; experiment: Cytotoxicity against human SW480 cells incubated for 24 hrs by MTT assay; type: functional, cell-based; conditions: SW480, 24 h
[4] = system: U-251; experiment: Cytotoxicity against human U251 cells incubated for 24 hrs by MTT assay; type: functional, cell-based; conditions: U-251, 24 h
[5] = system: HUVEC; experiment: Induction of ROS scavenging activity in HUVEC assessed as reduction in high glucose-induced intracellular ROS level at 5 uM incubated for 6 hrs by DCFH-DA/Hoechst 33342 staining based assay relative to control; type: functional, Homo sapiens; parameters: scale not given: the % may be the effect or the level left
[6] = system: HUVEC; experiment: Induction of ROS scavenging activity in HUVEC assessed as reduction in high glucose-induced intracellular ROS level at 20 uM incubated for 6 hrs by DCFH-DA/Hoechst 33342 staining based assay relative to control; type: functional, Homo sapiens; parameters: scale not given: the % may be the effect or the level left

| Structure (SMILES) | Activity [1] | IC50 [2] | IC50 [3] | IC50 [4] | Activity [5] | Activity [6] |
| --- | --- | --- | --- | --- | --- | --- |
| C=C(CC[C@@H](C)[C@H]1CC[C@H]2C3=CC[C@H]4[C@H](C)C(=O)CC[C@]4(C)C3=C[C@@H](O)[C@]12C)C(C)C | Non-Toxic | > 100 µM | > 100 µM | > 100 µM | – | – |
| C=C(CC[C@@H](C)[C@H]1CC[C@H]2C3=CC[C@H]4[C@H](C)[C@@H](O)CC[C@]4(C)C3=C[C@@H](O)[C@]12C)C(C)C | Non-Toxic | 8.1 µM | 16.4 µM | 15.6 µM | – | – |
| C/C=C(\CO)CC[C@@H](C)[C@H]1CC[C@H]2C3=C(C(=O)C[C@]12C)[C@@]1(C)CC[C@@H](O)[C@](C)(O)[C@@H]1C[C@@H]3O | Non-Toxic | > 100 µM | > 100 µM | 9.2 µM | – | – |
| C=C(CC[C@@H](C)[C@H]1CC[C@H]2C3=C(C(=O)C[C@]12C)[C@@]1(C)CC[C@@H](O)[C@](C)(O)[C@@H]1C[C@@H]3O)[C@H](C)C(=O)O | Non-Toxic | > 100 µM | > 100 µM | > 100 µM | – | – |
| CCc1c2c(nc3ccc(OC(=O)N4CCC(N5CCCCC5)CC4)cc13)-c1cc3c(c(=O)n1C2)COC(=O)[C@]3(O)CC [IRINOTECAN] | – | 0.8 µM | – | – | – | – |
| C=C1CC[C@H](O)C/C1=C/C=C1\CCC[C@]2(C)[C@@H]([C@H](C)CCCC(C)C)CC[C@@H]12 [CHOLECALCIFEROL] | – | – | – | – | 65.4% | – |
| C=C(CC[C@@H](C(=O)O)[C@H]1C[C@H](O)[C@@]2(C)C3=CC[C@H]4C(C)(C)[C@@H](O)CC[C@]4(C)C3=CC[C@]12C)C(C)C | Non-Toxic | > 100 µM | > 100 µM | > 100 µM | – | – |
| CC1=C2C3=C(CC[C@]2(C)[C@@H]([C@H]2CC[C@](CO)(C(C)C)OC2)C1)[C@@]1(C)CC[C@H](O)C(C)(C)[C@@H]1CC3 | Non-Toxic | > 100 µM | > 100 µM | > 100 µM | – | – |
| C=C(CC[C@@H](C)[C@H]1CC[C@H]2C3=C(C(=O)C[C@]12C)[C@@]1(C)CC[C@@H](O)[C@](C)(O)[C@@H]1C[C@@H]3O)[C@@H](C)C(=O)O | Non-Toxic | > 100 µM | > 100 µM | > 100 µM | – | – |
| C=C(CC[C@@H](C(=O)O)[C@H]1CC[C@@]2(C)C3=C(CC[C@]12C)[C@@]1(C)CC[C@H](O)C(C)(C)[C@@H]1CC3)C(C)C [EBURICOIC ACID] | Non-Toxic | > 100 µM | > 100 µM | > 100 µM | – | – |
| C=C(CC[C@@H](C)[C@H]1CC[C@@]2(O)C3=C(C(=O)C[C@]12C)[C@@]1(C)CCC(=O)[C@@H](C)[C@@H]1CC3)C(C)C | Non-Toxic | > 100 µM | > 100 µM | > 100 µM | – | – |
| Cn1nnc2c(C(N)=O)ncn2c1=O [TEMOZOLOMIDE] | – | – | – | 36.4 µM | – | – |
| C=C(CC[C@@H](C(=O)O)[C@H]1CC[C@@]2(C)C3=CC[C@H]4C(C)(C)[C@@H](O)CC[C@]4(C)C3=CC[C@]12C)C(C)C [DEHYDROEBURICOIC ACID] | Non-Toxic | > 100 µM | > 100 µM | > 100 µM | – | 69.8% |
| C=C(CC[C@@H](C)[C@H]1CC[C@H]2C3=C(C(=O)[C@H](O)[C@]12C)[C@@]1(C)CC[C@@H](O)[C@@H](C)[C@@H]1CC3=O)[C@H](C)C(=O)O | Non-Toxic | > 100 µM | > 100 µM | > 100 µM | – | – |
| C=C(CC[C@@H](C)[C@H]1CC[C@H]2C3=C(C(=O)[C@H](O)[C@]12C)[C@@]1(C)CC[C@@H](O)[C@@H](C)[C@@H]1CC3=O)[C@@H](C)C(=O)O | Non-Toxic | > 100 µM | > 100 µM | > 100 µM | – | 70.5% |
| C=C(CC[C@@H](C(=O)O)[C@H]1C[C@H](O)[C@@]2(C)C3=C(CC[C@]12C)[C@@]1(C)CC[C@H](O)C(C)(C)[C@@H]1CC3)C(C)C [SULFURENIC ACID] | Non-Toxic | > 100 µM | > 100 µM | > 100 µM | – | – |
| C=C(CC[C@@H](C)[C@H]1CC[C@H]2C3=C(C(=O)C[C@]12C)[C@@]1(C)CC[C@@H](O)[C@H](O)[C@@H]1C[C@@H]3O)[C@@H](C)C(=O)O | Non-Toxic | > 100 µM | > 100 µM | > 100 µM | – | – |
| C=C(CC[C@@H](C)[C@H]1CC[C@H]2C3=CC[C@H]4[C@H](C)C(=O)CC[C@]4(C)C3=CC[C@]12C)C(C)C | Non-Toxic | > 100 µM | > 100 µM | > 100 µM | – | 63.9% |
| C=C(CC[C@@H](C)[C@H]1CC[C@H]2C3=C(C(=O)C[C@]12C)[C@@]1(C)CCC(=O)[C@@H](C)[C@@H]1C[C@H]3O)C(C)C | Non-Toxic | > 100 µM | > 100 µM | > 100 µM | – | 66.7% |
| C/C=C(/CO)CC[C@@H](C)[C@H]1CC[C@H]2C3=C(C(=O)C[C@]12C)[C@@]1(C)CC[C@@H](O)[C@](C)(O)[C@@H]1C[C@@H]3O | Non-Toxic | > 100 µM | > 100 µM | 10.4 µM | – | – |
| C=C(CC[C@@H](C)[C@H]1CC[C@H]2C3=CC[C@H]4[C@H](C)C(=O)CC[C@]4(C)C3=C[C@H](O)[C@]12C)C(C)C | Non-Toxic | > 100 µM | > 100 µM | > 100 µM | – | 69.9% |
| C=C(CC[C@@H](C)[C@H]1CC[C@H]2C3=C(C(=O)C[C@]12C)[C@@]1(C)CCC(=O)[C@@H](C)[C@@H]1C[C@@H]3O)[C@@H](C)C(=O)O | Non-Toxic | > 100 µM | > 100 µM | > 100 µM | – | – |
| C=C(CC[C@@H](C)[C@H]1CC[C@H]2C3=C(C(=O)C[C@]12C)[C@@]1(C)CC[C@@H](O)[C@H](O)[C@@H]1C[C@@H]3O)[C@H](C)C(=O)O | Non-Toxic | > 100 µM | > 100 µM | > 100 µM | – | – |
| C=C(CC[C@@H](C)[C@H]1CC[C@H]2C3=C(C(=O)C[C@]12C)[C@@]1(C)CCC(=O)[C@@H](C)[C@@H]1C[C@@H]3O)[C@H](C)C(=O)O | Non-Toxic | > 100 µM | > 100 µM | > 100 µM | – | – |
